These results are taken from patent publication US5834487A, “Inhibition of 26S and 20S proteasome by indanones” (CV Therapeutics, priority 1996, dated 1998).

Where two headings read alike, the source gives them in different places. Non-standard residues stand in square brackets, D forms with d. Residues, ends and D or L forms follow the SMILES beside them. *: point of attachment. Nva = CCC[C@H](N)C(=O)O; Cbz = O=C(OCc1ccccc1)* Bounds are passed on as bounds.

One test concerns OVCAR cells. As to the kind of experiment: Celltiter 96 Aqueous cell proliferation assay, OVCAR. The settings on record: 18 hours with compound. The class given is cell-based. The procedure: (§1) Compounds prepared according to the method of Example 1 were assayed against several different cell lines. Cell monolayers were cultured in the presence of test compound for 18 hours to access their ability to inhibit cell proliferation. Cell proliferation was determined colorimetrically using the Celltiter 96 Aqueous non-radioactive cell proliferation assay (Promega) where cell proliferation is directly proportional to absorbance at 490 nm. Results are quoted as the IC50 in μg/ml for inhibition of cell proliferation in various cell types.

Test [1] concerns LPS induced TNF synthesis. As to the kind of experiment: Inhibition of LPS induced TNF synthesis in RAW cells (ELISA). The settings on record: 1 hour pretreatment, LPS 100 ng/ml, supernatant after 1 hour. The test is classed as cell-based. How it is done:
Compounds prepared according to the method of Example 1 were tested for the inhibition of LPS induced TNF synthesis. RAW cells were pretreated with different concentrations of test compound for 1 hour prior to the administration of lipopolysaccharide (100 ng/mi). Cell culture supernatants were harvested after 1 hour and assayed for TNF concentration by ELISA (Biosource)
(In general: An ELISA detects its analyte on a solid surface through an enzyme-linked reagent.)

Another test has as its system CaCo cells. Briefly: Celltiter 96 Aqueous cell proliferation assay, CaCo. The test is classed as cell-based. The settings on record: 18 hours with compound. How it is done:
as §1

The subject of a further test is IκB degradation. Briefly: Inhibition of LPS-induced IκB degradation, Western blot of RAW cell lysates. The settings on record: 1 hour pretreatment, LPS 100 ng/ml 1 hour, anti-IκBα Western blot (FIG. 1). The test is classed as cell-based. From the text:
(§2) This Example examines the ability of compound 173 and particularly compound 187 described in Tables 1 & 2 above to inhibit proteasome activity as indicated, in part, by the presence of IκB and/or p105 in inhibited cells. In order for NF-κB to translocate to the nucleus in response to a stimulus such as lipopolysaccharide (LPS) and activate transcription two proteolytic events need to occur, namely degradation of the inhibitory protein IκB and processing of p105 to p50. These proteolytic events serve to unmask the nuclear localization signal of NF-κB.
RAW cells were pretreated with different concentrations of test compound for 1 hour prior to the administration of lipopolysaccharide (100 ng/ml). Whole cell lysates were harvested after 1 hour, 10 μg, protein was separated by SDS-PAGE, transferred to nitrocellulose and assayed for immunoreactivity with anti-IκBa antibody. Western blots, (See FIG. 1), were visualized using the Boehringer Mannheim Chemiluminescent detection kit.
In general terms: Immunoblotting shows a protein as a band on a membrane.

The next test concerns Panc-I cells. Briefly: Celltiter 96 Aqueous cell proliferation assay, Panc-I. The test is classed as cell-based. To be noted: 18 hours with compound. The procedure: as §1
In test [2] the target is T1, 20S catalytic subunit of the proteasome (multicatalytic proteinase complex) (Bos taurus, UniProt Q32KL2).
T1 construct: was purified to homogeneity from bovine brain according to published methods; from tissue; host or cells: bovine brain
Briefly: 20S proteasome chymotryptic activity, fluorogenic peptide cleavage. The test is classed as biochemical, bovine. To be noted: 50 μM succinyl-leu-leu-val-tyr-7-amino-4-methyl coumarin, 15 minutes at 37° C, pH7.5. The essentials:
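Purified bovine-brain 20S proteasome (2 μg) with 0.1-100 μg/ml inhibitor in 50 mM HEPES, 0.1% SDS, pH 7.5. Reaction started with 50 μM Suc-LLVY-AMC, 15 min at 37° C, stopped with pH 4.0 acetate; liberated AMC read by fluorescence (ex 370, em 430 nm).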

For the next test, the system named is MCF-7 cells. Briefly: Celltiter 96 Aqueous cell proliferation assay, MCF-7. To be noted: MCF-7, 18 hours with compound. The class given is cell-based. The procedure: as §1
The test system of a further test is RAW cells. Briefly: Celltiter 96 Aqueous cell proliferation assay, RAW. The settings on record: 18 hours with compound. The test is classed as cell-based. How it is done: as §1
Another test concerns NF-κB. Briefly: Inhibition of LPS-induced translocation of NF-κB to the nucleus, gel mobility shift assay. The class given is cell-based. To be noted: RAW cells, 20 μg/ml for 1 hour, then LPS 100 ng/ml 1 hour (FIG. 3). How it is done: RAW cells were treated for 1 hour with compound 187 (20 μg/ml) and then incubated with lipopolysaccharide (100 ng/ml) for a further one hour. Nuclear fractions were prepared according to standard procedures. Binding reactions for gel mobility shift assays contained 5 μg of nuclear extract protein, 50,000 cpm of ^32 P-labeled NF-κB consensus binding oligonucleotide in the presence and absence of a fifty fold excess of unlabeled oligonucleotide.

In another test the test system is p105 to p50 processing. As to the kind of experiment: Inhibition of LPS-induced p105 to p50 processing, Western blot of RAW cell lysates. The class given is cell-based. To be noted: 1 hour pretreatment, anti-p50 Western blot (FIG. 2).
Source text: as §2
Compound 187 as described in Tables 1 & 2 above was used to pretreat RAW cells as described above, and whole cell lysates prepared as described above were analyzed for immunoreactivity toward an anti-p50 antibody. The results, set forth in FIG. 2 indicate that p50 and […] are both present in cells treated with as little as 5 μg/ml of compound 187, while in untreated cells, majority of P 105 has been processed to p50.

For test [3], the target named is T2, chymotrypsin-like activity associated with the proteasome (Homo sapiens, UniProt P28074).
T2 sequence (P28074 60-263): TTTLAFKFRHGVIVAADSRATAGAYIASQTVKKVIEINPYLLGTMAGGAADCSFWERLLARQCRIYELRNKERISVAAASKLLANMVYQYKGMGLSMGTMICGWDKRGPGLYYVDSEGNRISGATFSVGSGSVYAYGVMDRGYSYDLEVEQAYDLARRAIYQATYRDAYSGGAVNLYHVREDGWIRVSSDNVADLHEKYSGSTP
The settings on record: cited from earlier work.

For the compound `COc1ccc2c(c1)C(CC(=O)NC(CC(C)C)C(=O)NC(CC(C)C)C(=O)NCc1ccccc1)CC2=O` (mixture of isomers) [Compound 173], the “IC50 for inhibition of cell proliferation, OVCAR” value (“IC50 for inhibition … OVCAR” below) in the test on OVCAR cells was determined as 8 µg/mL. In addition, the “IC50 inhibition of LPS induced TNF synthesis” value (“IC50 inhibition” for short) in test [1] worked out at 5 µg/mL. Also, the “IC50 for inhibition of cell proliferation, CaCo” value in the test with CaCo cells amounted to 17 µg/mL. Further, the “concentration at which IκB is present in treated cells” value in the test with IκB degradation was not above 5 µg/mL. In the test on Panc-I cells, the “IC50 for inhibition of cell proliferation, Panc-I” value (from here on “IC50 for inhibition … Panc-I”) came out at 17 µg/mL. In addition, the half-maximal inhibitory concentration (IC50) – broadly, the midpoint of a concentration-inhibition curve – in [2] is 0.5 µg/mL. In addition, the “IC50 for inhibition of cell proliferation, MCF-7” value in the test on MCF-7 cells came out at 10 µg/mL. Further, the “IC50 for inhibition of cell proliferation, RAW” value (shortened to “IC50 for inhibition … RAW”) in the test on RAW cells turned out to be 20 µg/mL.
On to `COc1ccc2c(c1)C(CC(=O)NC(CC(C)C)C(=O)NC(CC(C)C)C(=O)NC1CCc3ccccc31)CC2=O` (mixture of isomers) [Compound 187], for which the “IC50 for inhibition … OVCAR” value in the test on OVCAR cells worked out at 5 µg/mL. In the test on NF-κB, the “accumulation of NF-κB in the nucleus of cells” value is recorded as “effective in inhibiting the accumulation of NF-κB in the nucleus of cells”. For the same compound, the “IC50 inhibition” value in [1] amounted to 5 µg/mL. The “IC50 for inhibition of cell proliferation, CaCo” value in the test on CaCo cells was 8 µg/mL. The “concentration at which IκB is present in treated cells” value in the test on IκB degradation is not above 5 µg/mL. Moreover, the “IC50 for inhibition … Panc-I” value in the test on Panc-I cells stood at 7 µg/mL. In test [2], this compound came in with a half-inhibitory concentration (IC50) of 0.5 µg/mL. In addition, the “IC50 for inhibition of cell proliferation, MCF-7” value in the test on MCF-7 cells worked out at 6 µg/mL. The “IC50 for inhibition … RAW” value with RAW cells was 10 µg/mL. The “concentration at which p50 and p150 are both present in treated cells” value in the test with p105 to p50 processing is not above 5 µg/mL.
On to `COc1ccc(CNC(=O)C(CC(C)C)NC(=O)C(CC(C)C)NC(=O)CC2CC(=O)c3ccc(OC)cc32)cc1` (mixture of isomers) [Compound 194], for which, in the test with OVCAR cells, the “IC50 for inhibition … OVCAR” value was determined as 3 µg/mL. Besides, the “IC50 inhibition” value in test [1] worked out at 3 µg/mL. The “IC50 for inhibition … Panc-I” value with Panc-I cells stood at 8 µg/mL. For the same compound, the IC50 in test [2] is more than 10 µg/mL. In addition, the “IC50 for inhibition … RAW” value in the test with RAW cells was 1 µg/mL.
For the compound `COc1ccc2c(c1)C(CC(=O)NC(CC(C)C)C(=O)NC(CC(C)C)C(=O)NCc1c(F)cccc1F)CC2=O` (mixture of isomers) [Compound 196], in the test on OVCAR cells, the “IC50 for inhibition … OVCAR” value was found to be 2 µg/mL. The “IC50 inhibition” value in test [1] is 3 µg/mL. The “IC50 for inhibition … Panc-I” value in the test on Panc-I cells amounted to 8 µg/mL. Moreover, in [2], the IC50 is 0.08 µg/mL. For the same compound, the “IC50 for inhibition … RAW” value with RAW cells was 7 µg/mL.
With `COc1ccc2c(c1)C(CC(=O)NC(CC(C)C)C(=O)NC(CC(C)C)C(=O)NCc1ccc3c(c1)OCO3)CC2=O` (mixture of isomers) [Compound 197], in the test with OVCAR cells, the “IC50 for inhibition … OVCAR” value was determined as 2 µg/mL. In addition, the “IC50 inhibition” value in test [1] came out at 3 µg/mL. Also, the “IC50 for inhibition … Panc-I” value in the test with Panc-I cells stood at 8 µg/mL. For the same compound, the IC50 in test [2] was 0.2 µg/mL. In the test on RAW cells, the “IC50 for inhibition … RAW” value amounted to 12 µg/mL.
The compound `COc1ccc2c(c1)C(CC(=O)N(c1ccc(O)cc1)c1ccc3ccccc3c1)CC2=O` (centres unmarked) [Compound 144] showed a half-maximal inhibitory concentration (IC50) in test [2] of more than 10 µg/mL.
On to `COc1ccc2c(c1)C(CC(=O)Nc1nc(O)c(C)c(O)n1)CC2=O` (centres unmarked) [Compound 145], for which, in test [2], the IC50 was more than 10 µg/mL.
Still for that read-out and setting: the value for `COc1ccc(CN(C(=O)CC2CC(=O)c3ccc(OC)cc32)c2ccccn2)cc1` (centres unmarked) [Compound 149] was more than 10 µg/mL; that for `COc1ccc2c(c1)C(CC(=O)NCCCCCCN)CC2=O` (centres unmarked) [Compound 150] was more than 10 µg/mL; that for `COc1ccc2c(c1)C(CC(=O)N1CCC(O)(c3ccccc3)CC1)CC2=O` (centres unmarked) [Compound 151] was more than 10 µg/mL.
Take `CSCC[C@@H](C=O)NC(=O)[C@H](CC(C)C)NC(=O)[C@H](CC(C)C)NC(C)=O` [LLM, N-acetyl-L-leucinyl-L-leucinyl-methional] (Ac-Leu-Leu-Met-aldehyde): the inhibitory constant (Ki) (usually the dissociation constant of the complex between target and ligand, obtained from inhibition or displacement) in test [3] (literature values) was 140 nM.
Turning to `CCC[C@@H](C=O)NC(=O)[C@H](CC(C)C)NC(=O)[C@H](CC(C)C)NC(=O)OCc1ccccc1` [MG 115, N-carbobenzoxyl-L-leucinyl-L-leucinyl-L-norvalinal] (Cbz-Leu-Leu-[Nva]-aldehyde), the Ki in test [3] (literature value) was 21 nM.
For the compound “N-acetyl-L-leucinyl-L-leucinal-L-norleucinal [ALLN]”, in [3] (literature values), the Ki is 140 nM.
